A short description of test [1]: (§1) Inhibition of D-DWEYS binding to mouse anti-dsDNA monoclonal antibody R4A pretreated for 1 hr followed by D-DWEYS peptide addition measured after 1 hr by ELISA. (In general: ELISA stands for enzyme-linked immunosorbent assay.)
The species entered for test [2] is Mus musculus. Briefly: Inhibition of mouse glomerular binding to mouse anti-dsDNA monoclonal antibody R4A at 50 uM pretreated for 1 hr followed by glomerular addition by microscopic analysis.
The species entered for test [3] is Mus musculus. The description is as §1.

Calls of active or inactive are those of the source. The rule behind the calls is not given here. Some results are limits rather than exact numbers.

Broadly, the IC50 is the concentration needed to halve the response being measured. Take `CC(C)(C)NC[C@@H]1CC2CCCCC2CN1C[C@@H](O)[C@H](Cc1ccccc1)NC[C@@H](N)CCN` (stereo partly drawn): the half-maximal inhibitory concentration (IC50) in test [1] (read-out: IC50) was found to be 27.3 µM.

Take `CC(C)(C)NC[C@@H]1CC2CCCCC2CN1` (stereo partly drawn): in test [1], the IC50 result was “Not Active”.

`OCC1Nc2ccccc2CC1O` (stereo not drawn): in test [1], the IC50 result is given as “Not Active”.

On to `CC(C)(C)NC[C@@H]1CC2CCCCC2CN1C[C@@H](O)[C@H](Cc1ccccc1)NC[C@H](CCN)NC(=O)C1CCCCN1` (stereo partly drawn), for which the IC50 in test [1] (read-out: IC50) amounted to 10 µM.

For the compound `CC(C)(C)NC[C@@H]1CC2CCCCC2CN1C[C@@H](O)[C@H](Cc1ccccc1)NC[C@H](CCN)NC(=O)c1ccc2ccccc2n1` (stereo partly drawn), the IC50 in test [1] (read-out: IC50) was found to be 7.3 µM.

Usually inhibition stands for the percentage by which the read-out fell short of the control. Take `CC(C)(C)NC[C@@H]1CC2CCCCC2CN1C[C@@H](O)[C@H](Cc1ccccc1)NC[C@H](CCN)NC(=O)c1ccc2ccccc2c1` (stereo partly drawn): in the test filed under Mus musculus [2], the inhibition entry was “Active”. The IC50 in test [1] (read-out: IC50) was 3.7 µM. For the same compound, the inhibition entry in the test listed under Mus musculus [3] is “Dose-dependent effect”.

On to `CC(C)(C)NC[C@@H]1CC2CCCCC2CN1C[C@@H](O)[C@H](Cc1ccccc1)NC[C@H](CCN)NCC1Nc2ccccc2CC1O` (stereo partly drawn), for which the half-inhibitory concentration (IC50) in test [1] (read-out: IC50) is 4.5 µM.

Take `CC(C)(C)NC[C@@H]1CC2CCCCC2CN1C[C@@H](O)[C@H](Cc1ccccc1)NC(=O)[C@H](CCN)NC(=O)c1nc2ccccc2cc1O` (stereo partly drawn): the IC50 in test [1] (read-out: IC50) was 19.7 µM.

In the case of `O=C(O)c1ccc2ccccc2n1` [QUINALDIC ACID], in test [1], the IC50 result is “Not Active”.

For `CC(C)(C)NC[C@@H]1CC2CCCCC2CN1C[C@@H](O)[C@H](Cc1ccccc1)NC[C@H](CCN)NCC1CCc2ccccc2N1` (stereo partly drawn), in test [1] (read-out: IC50), the IC50 came to 6.9 µM.

Turning to `NCC[C@@H](CN[C@H](CO)Cc1ccccc1)NCC1CCc2ccccc2N1` (stereo partly drawn), the IC50 entry in test [1] is “Not Active”.

For the compound `CC(C)(C)NC(=O)[C@@H]1CC2CCCCC2CN1C[C@@H](O)[C@H](Cc1ccccc1)NC(=O)c1ccc2ccccc2n1` (stereo partly drawn), the IC50 in test [1] (read-out: IC50) is 88.7 µM.

On to `CC(C)(C)NC(=O)[C@@H]1CC2CCCCC2CN1C[C@@H](O)[C@H](Cc1ccccc1)NC(=O)[C@H](CCN)NCc1ccc2ccccc2n1` (stereo partly drawn), for which the IC50 entry in test [1] is given as “Not Active”.

For the compound `CC(C)(C)NC[C@@H]1CC2CCCCC2CN1C[C@@H](O)[C@H](Cc1ccccc1)NC(=O)c1ccc2ccccc2n1` (stereo partly drawn), the inhibition entry in the test filed under Mus musculus [2] was “Active”. Further, in test [1] (read-out: IC50), the IC50 amounted to 5.8 µM. In addition, the inhibition result in the test filed under Mus musculus [3] is “Dose-dependent effect”.

`NCC[C@@H](CN[C@@H](Cc1ccccc1)[C@H](O)CN1CCOCC1)NC(=O)c1ccc2ccccc2c1`: in test [1], the IC50 result is on record as “Not Active”.

For `CC(C)(C)NC[C@@H]1CC2CCCCC2CN1C[C@@H](O)[C@H](Cc1ccccc1)NC[C@H](CCN)NC(=O)c1ccccn1` (stereo partly drawn), the IC50 in test [1] (read-out: IC50) was 12.5 µM.

As for `CC(C)(C)NC[C@@H]1CC2CCCCC2CN1C[C@@H](O)[C@@H](N)Cc1ccccc1` (stereo partly drawn), the inhibition in the test listed under Mus musculus [3] (concentration not given here) is less than 20%.

For the compound `CC(C)(C)NC(=O)[C@@H]1CC2CCCCC2CN1C[C@@H](O)[C@H](Cc1ccccc1)NC(=O)c1ccc2ccccc2c1` (stereo partly drawn), in test [1] (read-out: IC50), the IC50 was greater than 100 µM.

Take `CC(C)(C)NC[C@@H]1CC2CCCCC2CN1C[C@@H](O)[C@H](Cc1ccccc1)NC(=O)c1ccc2ccccc2c1` (stereo partly drawn): the IC50 in test [1] (read-out: IC50) came to 6.8 µM.
